The values below come from patent publication US11337970B2, “Inhibitors of indoleamine 2,3-dioxygenase and methods of their use” (BRISTOL-MYERS SQUIBB COMPANY, priority 2016, dated 2022).

The target in one assay is T1, human IDO1 (Homo sapiens, UniProt P14902).
T1 construct: expressed in transfected cells
Nature of the assay: IDO inhibition assay in HEK293 cells stably expressing human IDO1 (kynurenine, Ehrlich reagent). To be noted: 20 hours incubation, absorbance at 490 nm, read-out: IDO1 HEK Human IC50. It counts as cell-based. As to the method:
HEK293 cells were transfected with a pCDNA-based mammalian expression vector harboring human IDO1 cDNA (NM 002164.2) by electroporation. They were cultured in medium (DMEM with 10% FBS) containing 1 mg/ml G418 for two weeks. Clones of HEK293 cells that stably expressed human IDO1 protein were selected and expanded for IDO inhibition assay.
The human IDO1/HEK293 cells were seeded at 10,000 cells per 50 μL per well with RPMI/phenol red free media contains 10% FBS in a 384-well black wall clear bottom tissue culture plate (Matrix Technologies LLC) 100 nL of certain concentration of compound was then added to each well using ECHO liquid handling systems. The cells were incubated for 20 hours in 37° C. incubator with 5% CO2.
The compound treatments were stopped by adding trichloroacetic acid (Sigma-Aldrich) to a final concentration at 0.2%. The cell plate was further incubated at 50° C. for 30 minute. The equal volume supernatant (20 μL) and 0.2% (w/v) Ehrlich reagent (4-dimethylaminobenzaldehyde, Sigma-Aldrich) in glacial acetic acid were mixed in a new clear bottom 384-well plate. This plate was then incubated at room temperature for 30 minute. The absorbance at 490 nm was measured on Envision plate reader.
Compound IC50 values were calculated using the counts of 500 nM of a reference standard treatment as one hundred percent inhibition, and counts of no compound but DMSO treatment as zero percent inhibition.

Assay [1] addresses T2, indoleamine 2,3-dioxygenase (IDO) (Homo sapiens, UniProt P14902).
T2 construct: host or cells: HeLa cells stimulated with IFNγ (25 ng/mL)
Briefly: HeLa cell-based indoleamine 2,3-dioxygenase (IDO) assay (kynurenine production). To be noted: HeLa cells, IFNγ 25 ng/mL, 48 hour incubation, absorbance at 480 nm. As to the method: Assessment of inhibitor activity in HeLa cell-based indoleamine 2,3-dioxygenase (IDO) assay:
HeLa (ATCC® CCL-2) cells were obtained from the ATCC® and cultured in Dulbecco's Modified Eagle Medium supplemented with 4.5 g/L glucose, […] (#10-013-CV, Corning), 2 mM L-alanyl-L-glutamine dipeptide (#35050-061, Gibco), 100U/mL penicillin, 100 μg/mL streptomycin (#SV30010, HyClone) and 10% fetal bovine serum (#SH30071.03 HyClone). Cells were maintained in a humidified incubator at 37° C. in 5% CO2.
IDO activity was assessed as a function of kynurenine production as follows: HeLa cells were seeded in a 96-well culture plate at a density of 5,000 cells/well and allowed to equilibrate overnight. After 24 hours, the media was aspirated and replaced with media containing IFNγ (#285-IF/CF, R&D Systems) at a final concentration of 25 ng/mL. A serial dilution of each test compound was added to the cells in a total volume of 200 μL of culture medium. After a further 48 hour incubation, 170 μL of supernatant was transferred from each well to a fresh 96-well plate. 12.1 μL of 6.1N trichloroacetic acid (#T0699, Sigma-Aldrich) was added to each well and mixed, followed by incubation at 65° C. for 20 minutes to hydrolyze N-formylkynurenine, the product of indoleamine 2,3-dioxygenase, to kynurenine. The reaction mixture was then centrifuged for 10 mins at 500×g to sediment the precipitate. 100 μL of the supernatant was transferred from each well to afresh 96-well plate. 100 μl of 2% (w/v) p-dimethylaminobenzaldehyde (#15647-7, Sigma-Aldrich) in acetic acid (#A6283, Sigma-Aldrich) was added to each well mixed and incubated at room temperature for 20 mins. Kynurenine concentrations were determined by measuring absorbance at 480 nm and calibrating against an L-kynurenine (#K8625, Sigma-Aldrich) standard curve using a SPECTRAMAX® M2e microplate reader (Molecular Devices). The percentage activity at each inhibitor concentration was determined and IC50 values assessed using nonlinear regression.

T2 sequence (P14902 whole entry): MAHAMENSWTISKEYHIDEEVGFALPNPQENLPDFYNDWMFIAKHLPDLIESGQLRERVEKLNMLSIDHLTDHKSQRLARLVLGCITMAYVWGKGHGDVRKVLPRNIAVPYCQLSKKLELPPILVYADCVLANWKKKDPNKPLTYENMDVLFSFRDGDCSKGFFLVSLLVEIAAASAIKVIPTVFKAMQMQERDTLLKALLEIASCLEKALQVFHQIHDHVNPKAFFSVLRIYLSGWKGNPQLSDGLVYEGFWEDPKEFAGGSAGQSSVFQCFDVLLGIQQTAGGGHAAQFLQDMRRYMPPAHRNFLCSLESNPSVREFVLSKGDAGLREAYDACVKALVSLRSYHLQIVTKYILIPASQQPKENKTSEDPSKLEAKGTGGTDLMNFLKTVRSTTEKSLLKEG
T1 sequence (P14902 whole entry): as above

For orientation: IC50 means the concentration needed to halve the response being measured. For `CCC(c1nc2ccc(Cl)cc2[nH]1)[C@H]1CC[C@@H](Oc2ccnc3ccccc23)CC1` (stereo partly shown) [Example 52, 4-(((1s,4s)-4-(1-(6-chloro-1H-benzo[d]imidazol-2-yl)propyl)cyclohexyl)oxy)quinoline], on human IDO1, the IC50 is 697 nM. Consider `C[C@@H](c1nc2cc3c(cc2[nH]1)OCO3)[C@H]1CC[C@@H](c2ccnc3ccc(F)cc32)CC1` [Example 4, 6-((R)-1-((cis)-4-(6-fluoroquinolin-4-yl)cyclohexyl)ethyl)-5H-[1,3]dioxolo[4′,5′:4,5]benzo[1,2-d]imidazole], for which the IC50 at human IDO1 worked out at 1.5 nM.

Turning to `CCC(c1nc2ccc(Cl)cc2[nH]1)[C@H]1CC[C@@H](Oc2ccnc3ccccc23)CC1` (stereo partly drawn) [Example 14, 4-(((cis)-4-(1-(6-chloro-1H-benzo[d]imidazol-2-yl)propyl)cyclohexyl)oxy)quinoline], at human IDO1, the IC50 worked out at 322 nM. Turning to `CC[C@H](c1nc2ccc(Cl)cc2[nH]1)[C@H]1CC[C@@H](c2ccnc3ccc(F)cc32)CC1` (single isomer, unassigned) [Example 15-2, 4-(4-(1-(6-chloro-1H-benzo[d]imidazol-2-yl)propyl)cyclohexyl)-6-fluoroquinoline], the IC50 on human IDO1 is 110 nM. On the same count and under the same terms, as for `C[C@@H](c1nc2cnccc2[nH]1)[C@H]1CC[C@@H](c2ccnc3ccc(F)cc32)CC1` [Example 5, 4-((cis)-4-((R)-1-(1H-imidazo[4,5-c]pyridin-2-yl)ethyl)cyclohexyl)-6-fluoroquinoline], the figure is 105 nM; as for `CC(c1nc2ccc(Cl)cc2[nH]1)C1CCC(c2ccnc3ccccc23)CC1` (single isomer, unassigned) [Example 16-1, (±)-4-(4-(1-(6-chloro-1H-benzo[d]imidazol-2-yl)ethyl)cyclohexyl)quinoline], 54.1 nM. Still for that read-out and setting: for “(±)-Cis and trans-6-chloro-2-(1-(4-(2-(trifluoromethyl)pyridin-4-yl)cyclohexyl)ethyl)-1H-benzo[d]imidazole [Example 38]” the value was 62.1 nM. Take `C[C@@H](Nc1nc2ccccc2[nH]1)[C@H]1CC[C@@H](c2ccnc3ccc(F)cc32)CC1` [Example 12, N-((R)-1-((cis)-4-(6-fluoroquinolin-4-yl)cyclohexyl)ethyl)-1H-benzo[d]imidazol-2-amine]: the IC50 on human IDO1 was 139 nM. On the same count and under the same terms, as for “(+/−)-Cis and trans-6-chloro-2-(1-(4-(2-(trifluoromethyl)pyridin-4-yl)cyclohexyl)propyl)-1H-benzo[d]imidazole [Example 36]”, the figure is 26.1 nM.

Molecule `C[C@H](c1nc2ccc(Cl)cc2[nH]1)[C@H]1CC[C@@H](c2ccnc(C(F)(F)F)c2)CC1` (single isomer, unassigned) [Example 39-1, 6-chloro-2-(1-(4-(2-(trifluoromethyl)pyridin-4-yl)cyclohexyl)ethyl)-1H-benzo[d]imidazole] showed an IC50 in assay [1] of 170 nM.

Molecule `Cc1ccc2nc([C@H](C)[C@H]3CC[C@@H](c4ccnc5ccc(F)cc54)CC3)cn2n1` [Example 30, 6-fluoro-4-((cis)-4-((R)-1-(6-methylimidazo[1,2-b]pyridazin-2-yl)ethyl)cyclohexyl)quinoline] gave an IC50 in assay [1] of 96.6 nM. Still for that read-out and setting: as for `C[C@@H](c1nnc2ccccn12)[C@H]1CC[C@@H](c2ccnc3ccc(F)cc32)CC1` [Example 26, 4-((cis)-4-((R)-1-([1,2,4]triazolo[4,3-a]pyridin-3-yl)ethyl)cyclohexyl)-6-fluoroquinoline], the figure is 459 nM; as for `C[C@@H](c1ncc2ccccn12)[C@H]1CC[C@@H](c2ccnc3ccc(F)cc32)CC1` [Example 27, 6-fluoro-4-((cis)-4-((R)-1-(imidazo[1,5-a]pyridin-3-yl)ethyl)cyclohexyl)quinoline], 836 nM; as for `CCC(c1nc2ncc(Cl)cc2[nH]1)[C@H]1CC[C@H](Oc2ccnc3ccccc23)CC1` (single isomer, unassigned) [Example 20-2], 4.5 nM. Still for that read-out and setting: for `C[C@@H](c1nc2cc(C#N)ccc2[nH]1)[C@H]1CC[C@@H](c2ccnc3ccc(F)cc32)CC1` [Example 49, 2-((R)-1-((1s,4S)-4-(6-fluoroquinolin-4-yl)cyclohexyl)ethyl)-1H-benzo[d]imidazole-5-carbonitrile] the value was 13.4 nM.

In the case of `COCC(c1nc2ccc(Cl)cc2[nH]1)[C@H]1CC[C@@H](c2ccnc3ccc(F)cc32)CC1` (mixture of isomers) [Example 19, (±)-4-((cis)-4-(1-(6-chloro-1H-benzo[d]imidazol-2-yl)-2-methoxyethyl)cyclohexyl)-6-fluoroquinoline], the IC50 in assay [1] was 3.8 nM. Molecule `CC[C@H](c1nc2ncc(Cl)cc2[nH]1)[C@H]1CC[C@@H](c2ccnc3ccc(F)cc32)CC1` (single isomer, unassigned) [Example 21-1, 4-(4-(1-(6-chloro-1H-imidazo[4,5-b]pyridin-2-yl)propyl)cyclohexyl)-6-fluoroquinoline] yielded an IC50 in assay [1] of 2 nM. Still for that read-out and setting: as for `CCOCC(c1nc2ccc(Cl)cc2[nH]1)[C@H]1CC[C@@H](c2ccnc(F)c2C)CC1` (single isomer, unassigned) [Example 25-1, 6-chloro-2-(2-ethoxy-1-((cis)-4-(2-fluoro-3-methylpyridin-4-yl)cyclohexyl)ethyl)-1H-benzo[d]imidazole], the figure is 10.2 nM; as for `C[C@@H](c1nc2cc(C(F)(F)F)cc(C(F)(F)F)c2[nH]1)[C@H]1CC[C@@H](c2ccnc3ccc(F)cc32)CC1` [Example 47, 4-((1S,4s)-4-((R)-1-(5,7-bis(trifluoromethyl)-1H-benzo[d]imidazol-2-yl)ethyl)cyclohexyl)-6-fluoroquinolme], 45.6 nM; as for `COCC(c1nc2ccc(Cl)cc2[nH]1)[C@H]1CC[C@@H](c2ccnc3ccc(C(F)(F)F)cc32)CC1` (mixture of isomers) [Example 18, (±)-4-((cis)-4-(1-(6-chloro-1H-benzo[d]imidazol-2-yl)-2-methoxyethyl)cyclohexyl)-6-(trifluoromethyl)quinoline], 12.1 nM.

As to `CC(c1nc2ccc(Cl)cc2[nH]1)C1CCC(c2ccnc3ncccc23)CC1` (single isomer, unassigned) [Example 35-2], in assay [1], inhibition was half-maximal at 14.3 nM (IC50). On the same count and under the same terms, as for `C[C@@H](c1nc2cc(OC(F)(F)F)ccc2[nH]1)[C@H]1CC[C@@H](c2ccnc3ccc(F)cc32)CC1` [Example 48, 6-fluoro-4-((1S,4s)-4-((R)-1-(5-(trifluoromethoxy)-1H-benzo[d]imidazol-2-yl)ethyl)cyclohexyl) quinoline], the figure is 10.7 nM. The same measure, in the same setting: as for `CCC(c1nc2ncc(Cl)cc2[nH]1)[C@H]1CC[C@@H](c2ccnc3ccc(C(F)(F)F)cc32)CC1` (single isomer, unassigned) [Example 22-2, 4-((cis)-4-(1-(6-chloro-1H-imidazo[4,5-b]pyridin-2-yl)propyl)cyclohexyl)-6-(trifluoromethyl)quinoline], the figure is 99.1 nM.

Take `C[C@@H](c1nc2cc(Cl)c(Cl)cc2[nH]1)[C@H]1CC[C@@H](c2ccnc3ccc(F)cc32)CC1` [Example 44, 4-((1S,4s)-4-((R)-1-(5,6-dichloro-1H-benzo[d]imidazol-2-yl)ethyl)cyclohexyl)-6-fluoroquinoline]: half-maximal inhibition in assay [1] (IC50) required 5.5 nM. Still for that read-out and setting: as for `CC[C@H](c1nc2ncc(Cl)cc2[nH]1)[C@H]1CC[C@@H](c2ccnc3ccc(F)cc32)CC1` (single isomer, unassigned) [Example 21-2, 4-(4-(1-(6-chloro-1H-imidazo[4,5-b]pyridin-2-yl)propyl)cyclohexyl)-6-fluoroquinoline], the figure is 1000 nM.
